These results are taken from patent publication US20090238761A1, “Novel Aryl Piperazine Derivatives With Medical Utility” (Universita Degli Studi Di Siena, priority 2005, published 2009).

Regarding `O=C(NCCCCN1CCN(c2ccccc2)CC1)c1cc2ccccc2o1`, the melting point – broadly, the temperature, or range, at which the solid turns liquid – fell in the range of 149 to 150 °C. For `Cc1cccc(N2CCN(CCCCNC(=O)c3cc4ccccc4o3)CC2)c1C` the value was 151 to 152 °C. In the case of `COc1cccc(N2CCN(CCCCNC(=O)c3cc4ccccc4o3)CC2)c1`, the melting point lay in the range of 104 to 105 °C. Next, `Cc1cccc(N2CCN(CCCCNC(=O)c3cc4ccccc4o3)CC2)n1`: 107 to 109 °C; `O=C(NCCCCN1CCN(c2cnc3ccccc3c2)CC1)c1ccccc1`: 124 to 125 °C; `O=C(NCCCCN1CCN(c2cnc3ccccc3c2)CC1)c1cc2ccccc2cn1`: 153 to 154 °C. For `O=C(NCCCCN1CCN(c2ccccc2)CC1)c1cccnc1` the value was 119 to 120 °C. For `Cc1cccc(N2CCN(CCCCNC(=O)c3ccccc3)CC2)n1` the value was 102 to 103 °C. In turn, `COc1cccc(N2CCN(CCCCNC(=O)c3ccccc3)CC2)n1` gave a melting point of 120 to 121 °C.

The compound `O=C1c2cc3ccccc3n2CCN1CCCCN1CCN(c2cccc(Cl)c2)CC1` [Compound 1-9, 2-[4-[4-(3-Chlorophenyl)piperazin-1-yl]butyl]-3,4-dihydropyrazino[1,2-a]indol-1(2H)-one] registered a melting point of 180 to 181 °C. Next, `Cc1cccc(N2CCN(CCCCN3CCn4c(cc5ccccc54)C3=O)CC2)c1` [Compound 1-11]: 155 to 156 °C; `Cc1cccc(N2CCN(CCCCCOc3cc4ccccc4cn3)CC2)c1` [Compound 1-12, 3-[5-(4-m-Tolylpiperazin-1-yl)pentyloxy]isoquinoline]: 94 to 95 °C; `COc1cccc(N2CCN(CCCCNC(=O)c3ccccc3)CC2)c1` [Compound 1-45, N-(4-(4-(3-Methoxyphenyl)piperazin-1-yl)butyl)benzamide]: 111 to 112 °C.

`Cc1cccc(N2CCN(CCCCNC(=O)c3ccccc3)CC2)c1` [Compound 1-46, N-(4-(4-m-Tolylpiperazin-1-yl)butyl)benzamide] yielded a melting point of 126 to 127 °C.
